These are literature values, as cited in patent publication US20260272825A1, “LEVONORGESTREL AND COMPOSITIONS COMPRISING THE SAME” (CHEMO RESEARCH, S.L., priority 2023, published 2026).

For this data set, the system named is women.

For the compound `C[C@]12CCC3=C4CCC(=O)C=C4CC[C@H]3[C@@H]1CC[C@@]2(O)CC#N` [DNG, Dienogest], the “Ovulation inhibition / ovarian activity, in words” value (2 mg daily) is given as “provides ovulation inhibition, but ovarian activity is not completely suppressed”.

On to `C#C[C@]1(OC(C)=O)CC[C@H]2[C@@H]3CCC4=CC(=O)CC[C@@H]4[C@H]3CC[C@@]21C` [NETA, norethisterone acetate], for which the “Dosage providing ovulation inhibition” value (given continuously over 28 days) is not below 0.35 mg/daily.

On to `C#C[C@]1(O)CC[C@H]2[C@@H]3CCC4=CCCC[C@@H]4[C@H]3C(=C)C[C@@]21CC` [desogestrel], for which, for the setting “POP containing desogestrel 0.075 mg”, the “Cycles with ovulation inhibited” value is “at least 98%”.
